Measurements: ChEMBL document CHEMBL3400029, “Xanthones from the roots of Maclura cochinchinensis var. gerontogea and their retinoic acid receptor-α agonistic activity” (Bioorg Med Chem Lett, 2015)
The source made the active and inactive calls. No cut-off for these calls is given here.

What was measured:
Type in all cases: cell-based
[1] = target: T1, Retinoic acid receptor alpha (Homo sapiens) (UniProt P10276); assay: Agonist activity at RARalpha (unknown origin) expressed in HEK293 cells assessed as transcriptional activation at 1 uM after 48 hrs by luciferase reporter gene assay
T1 sequence (whole entry): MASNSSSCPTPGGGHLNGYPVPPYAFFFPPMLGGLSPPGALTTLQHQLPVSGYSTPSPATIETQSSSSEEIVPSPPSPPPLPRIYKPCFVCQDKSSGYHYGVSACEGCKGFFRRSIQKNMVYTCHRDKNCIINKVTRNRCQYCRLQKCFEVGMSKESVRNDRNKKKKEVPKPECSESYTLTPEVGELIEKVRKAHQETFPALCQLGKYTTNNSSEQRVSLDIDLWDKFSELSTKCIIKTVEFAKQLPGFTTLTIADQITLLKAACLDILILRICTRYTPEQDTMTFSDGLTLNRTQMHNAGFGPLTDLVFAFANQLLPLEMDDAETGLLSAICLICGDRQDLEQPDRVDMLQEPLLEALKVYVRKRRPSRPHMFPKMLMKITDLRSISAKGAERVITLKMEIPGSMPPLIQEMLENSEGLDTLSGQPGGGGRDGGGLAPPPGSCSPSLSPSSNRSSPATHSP

[2] = tested on: HEK293; assay: Cytotoxicity against HEK293 cells at > 1 uM; details: human
[3] = target: T1, Retinoic acid receptor alpha (Homo sapiens); assay: (§1) Agonist activity at RARalpha (unknown origin) expressed in HEK293 cells assessed as transcriptional activation after 48 hrs by luciferase reporter gene assay
[4] = target: T2, Retinoic acid receptor alpha (Homo sapiens, UniProt P10276); assay: as §1
T2 sequence (P10276 whole entry): T1 sequence (whole entry)

[5] = target: T2, Retinoic acid receptor alpha; assay: Agonist activity at RARalpha (unknown origin) expressed in HEK293 cells assessed as transcriptional activation after 48 hrs by luciferase reporter gene assay in presence of bexarotene

Row | SMILES | Activity [1] | Activity [2] | Activity [3] | EC50 [4] [nM] | EC50 [5] [nM]
1 | CC(C)=CCc1c(O)cc(O)c2c(=O)c3c(CC=C(C)C)c(O)ccc3oc12 [GERONTOXANTHONE H] | Active | Toxic |  |  | 
2 | CC1(C)C=Cc2c(cc(O)c3c(=O)c4c5c(ccc4oc23)OC(C(C)(C)O)C5)O1 (stereo not drawn) | Active |  | Dose-dependent effect | 65 | 170
3 | CC1Oc2cc3oc4c(O)c5c(cc4c(=O)c3c(O)c2C1(C)C)C=CC(C)(C)O5 (stereo not drawn) [GERONTOXANTHONE A] | Active |  | Dose-dependent effect | 170 | 200
4 | CC(C)=CCc1c(O)ccc2oc3c4c(cc(O)c3c(=O)c12)OC(C)(C)C=C4 | Active |  | Dose-dependent effect | 110 | 200
5 | C=CC(C)(C)c1c(O)cc2oc3c(O)c4c(cc3c(=O)c2c1O)C=CC(C)(C)O4 [GERONTOXANTHONE B] | Active |  | Dose-dependent effect | 1700 | 2000
